In one data set the target is Glutamate receptor 2 (Homo sapiens, UniProt P42262). Nature of the data set: Displacement of [3H]-HBT1 from His-tagged GluA2-AMPA receptor LBD (unknown origin) in presence of glutamate by scintillation proximity assay.
Data set [1] can be described thus: 1-Octanol/aqueous buffer partition coefficient, logD of the compound at pH 7.4 by chromatographic method based UV-visible detector. In kind it is physicochemical.
Data set [2] has as its target Glutamate receptor ionotropic, NMDA 2A (Homo sapiens, UniProt Q05586+Q12879). Put plainly: Positive allosteric modulator activity at GluN2A NMDA receptor (unknown origin) expressed in CHO cells co-expressing GluN1a in the presence of L-glutamate and glycine by Ca2+ influx assay. It counts as cell-based.
The nature of data set [3]: Metabolic stability in rat liver microsomes assessed as clearance at 1 uM incubated for 15 to 30 mins in the presence of NADPH generating system by LC-MS/MS analysis. In kind it is ADME, Microsome. Conditions: time 15-30 min, read-out: CLH. (Microsomes from liver hold many membrane-bound enzymes, among them those of drug oxidation.)
Data set [4] can be described thus: Metabolic stability in human liver microsomes assessed as clearance at 1 uM incubated for 15 to 30 mins in the presence of NADPH generating system by LC-MS/MS analysis. Particulars: time 15-30 min, read-out: CLH. In kind it is ADME, Microsome.
The nature of data set [5]: Drug concentration in Sprague-Dawley rat brain at 10 mg/kg, po measured after 1 hrs by LC-MS/MS analysis. It counts as ADME, organism-based. Conditions: read-out: Ct.
In data set [6] the target is Glutamate receptor ionotropic, NMDA 2B (Homo sapiens, UniProt Q05586+Q13224). Nature of the data set: Positive allosteric modulator activity at GluN2B NMDA receptor (unknown origin) expressed in CHO cells co-expressing GluN1a in the presence of L-glutamate and glycine by Ca2+ influx assay. In kind it is cell-based.
The nature of data set [7]: Drug concentration in Sprague-Dawley rat brain at 10 mg/kg, po measured after 0.5 hrs by LC-MS/MS analysis. It counts as ADME, organism-based. Conditions: read-out: Ct.
A short description of data set [8]: Drug concentration in Sprague-Dawley rat plasma at 10 mg/kg, po measured after 0.5 hrs by LC-MS/MS analysis. It counts as ADME, organism-based.
Data set [9] is described as follows: Drug concentration in Sprague-Dawley rat plasma at 10 mg/kg, po measured after 2 hrs by LC-MS/MS analysis. In kind it is ADME, organism-based.
In data set [10] the target is Glutamate receptor ionotropic, NMDA 2D (Homo sapiens, UniProt O15399+Q05586). Put plainly: Positive allosteric modulator activity at GluN2D NMDA receptor (unknown origin) expressed in CHO cells co-expressing GluN1a in the presence of L-glutamate and glycine by Ca2+ influx assay. It counts as cell-based.
The target of data set [11] is Glutamate receptor ionotropic, NMDA 2C (Homo sapiens, UniProt Q05586+Q14957). Nature of the data set: Positive allosteric modulator activity at GluN2C NMDA receptor (unknown origin) expressed in CHO cells co-expressing GluN1a in the presence of L-glutamate and glycine by Ca2+ influx assay. It counts as cell-based.
The nature of data set [12]: Drug concentration in Sprague-Dawley rat brain at 10 mg/kg, po measured after 2 hrs by LC-MS/MS analysis. Conditions: read-out: Ct. It counts as ADME, organism-based.
A short description of data set [13]: Drug concentration in Sprague-Dawley rat plasma at 10 mg/kg, po measured after 1 hrs by LC-MS/MS analysis. In kind it is ADME, organism-based.

The structures appear in SMILES notation. Where only a bound is given, the exact number is not on record here.

Results on 19 compounds are retold here after ChEMBL document CHEMBL5241126, “Design and synthesis of 6-methylpyridin-2-one derivatives as novel and potent GluN2A positive allosteric modulators for the treatment of cognitive impairment” (Bioorg Med Chem, 2023).

Broadly, the IC50 is the concentration that inhibits the measured activity by half. A word on the chromatographic logD: it is lipophilicity estimated from chromatographic retention. Higher therefore signals higher lipophilicity. As usually defined, the EC50 is the concentration giving half of the maximal effect.

Glutamate receptor ionotropic, NMDA 2A, sequence (Q12879 whole entry, one chain of several): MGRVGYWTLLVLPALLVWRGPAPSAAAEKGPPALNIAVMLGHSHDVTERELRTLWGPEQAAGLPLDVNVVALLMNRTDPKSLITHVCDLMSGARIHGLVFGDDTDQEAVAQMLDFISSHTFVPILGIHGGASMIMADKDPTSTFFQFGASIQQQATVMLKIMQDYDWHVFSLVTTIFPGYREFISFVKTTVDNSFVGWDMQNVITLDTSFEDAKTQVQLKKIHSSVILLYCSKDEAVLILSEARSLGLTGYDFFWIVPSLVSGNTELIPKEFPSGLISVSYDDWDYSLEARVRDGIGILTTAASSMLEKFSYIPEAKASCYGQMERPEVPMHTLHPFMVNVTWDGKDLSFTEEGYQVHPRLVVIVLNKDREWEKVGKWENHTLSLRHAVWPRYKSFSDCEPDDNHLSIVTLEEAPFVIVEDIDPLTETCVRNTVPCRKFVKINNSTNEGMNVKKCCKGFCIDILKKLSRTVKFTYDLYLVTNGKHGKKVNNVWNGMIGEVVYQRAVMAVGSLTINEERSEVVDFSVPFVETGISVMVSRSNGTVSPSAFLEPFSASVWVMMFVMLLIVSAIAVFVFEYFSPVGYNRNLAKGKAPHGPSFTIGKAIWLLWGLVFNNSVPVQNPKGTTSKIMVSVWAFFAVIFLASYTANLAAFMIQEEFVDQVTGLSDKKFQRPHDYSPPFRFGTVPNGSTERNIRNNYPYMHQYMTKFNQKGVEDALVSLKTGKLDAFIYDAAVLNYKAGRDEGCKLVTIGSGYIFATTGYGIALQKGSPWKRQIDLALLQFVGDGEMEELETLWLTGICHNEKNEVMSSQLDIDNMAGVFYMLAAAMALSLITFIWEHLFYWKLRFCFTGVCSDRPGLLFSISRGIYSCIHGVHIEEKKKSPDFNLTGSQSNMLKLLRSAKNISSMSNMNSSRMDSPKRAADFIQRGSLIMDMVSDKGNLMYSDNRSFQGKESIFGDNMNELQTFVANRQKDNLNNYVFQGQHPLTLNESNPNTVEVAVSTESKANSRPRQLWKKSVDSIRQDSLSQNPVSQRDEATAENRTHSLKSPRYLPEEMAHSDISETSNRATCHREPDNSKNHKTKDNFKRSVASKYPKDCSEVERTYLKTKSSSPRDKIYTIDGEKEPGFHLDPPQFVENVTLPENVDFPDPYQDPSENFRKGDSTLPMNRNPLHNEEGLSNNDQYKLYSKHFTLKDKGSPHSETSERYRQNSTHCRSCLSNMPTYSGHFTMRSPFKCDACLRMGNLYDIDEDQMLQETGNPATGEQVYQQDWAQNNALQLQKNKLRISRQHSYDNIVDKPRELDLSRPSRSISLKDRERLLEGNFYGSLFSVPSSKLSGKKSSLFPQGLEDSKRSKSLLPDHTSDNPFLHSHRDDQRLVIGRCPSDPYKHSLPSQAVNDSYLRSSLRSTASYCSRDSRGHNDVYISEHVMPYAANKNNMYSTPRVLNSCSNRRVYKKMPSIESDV
Glutamate receptor 2, sequence (P42262 whole entry, the tested form may be a part): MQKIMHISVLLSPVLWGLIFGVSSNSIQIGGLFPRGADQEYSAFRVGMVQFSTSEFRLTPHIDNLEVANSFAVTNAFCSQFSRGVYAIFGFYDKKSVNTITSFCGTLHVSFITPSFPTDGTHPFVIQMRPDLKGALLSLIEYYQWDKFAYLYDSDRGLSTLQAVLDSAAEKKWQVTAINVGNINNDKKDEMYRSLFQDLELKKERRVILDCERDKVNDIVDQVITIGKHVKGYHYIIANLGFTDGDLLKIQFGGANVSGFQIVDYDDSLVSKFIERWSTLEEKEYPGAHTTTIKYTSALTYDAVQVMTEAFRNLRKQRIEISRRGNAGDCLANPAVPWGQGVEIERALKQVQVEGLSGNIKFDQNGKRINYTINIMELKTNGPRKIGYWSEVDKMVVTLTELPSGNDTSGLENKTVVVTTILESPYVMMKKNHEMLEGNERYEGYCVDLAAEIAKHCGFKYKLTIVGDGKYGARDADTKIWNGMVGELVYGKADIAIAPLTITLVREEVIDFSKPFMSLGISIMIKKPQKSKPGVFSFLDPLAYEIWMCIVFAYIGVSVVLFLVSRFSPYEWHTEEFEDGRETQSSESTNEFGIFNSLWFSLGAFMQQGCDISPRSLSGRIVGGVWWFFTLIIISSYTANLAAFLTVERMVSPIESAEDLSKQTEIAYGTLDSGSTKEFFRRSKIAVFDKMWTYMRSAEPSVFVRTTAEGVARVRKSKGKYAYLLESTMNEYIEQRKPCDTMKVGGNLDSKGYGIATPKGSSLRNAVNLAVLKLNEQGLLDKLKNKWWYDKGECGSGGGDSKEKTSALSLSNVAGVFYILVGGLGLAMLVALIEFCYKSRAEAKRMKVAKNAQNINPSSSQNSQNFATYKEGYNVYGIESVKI
Glutamate receptor ionotropic, NMDA 2D, sequence (O15399 whole entry, one chain of several): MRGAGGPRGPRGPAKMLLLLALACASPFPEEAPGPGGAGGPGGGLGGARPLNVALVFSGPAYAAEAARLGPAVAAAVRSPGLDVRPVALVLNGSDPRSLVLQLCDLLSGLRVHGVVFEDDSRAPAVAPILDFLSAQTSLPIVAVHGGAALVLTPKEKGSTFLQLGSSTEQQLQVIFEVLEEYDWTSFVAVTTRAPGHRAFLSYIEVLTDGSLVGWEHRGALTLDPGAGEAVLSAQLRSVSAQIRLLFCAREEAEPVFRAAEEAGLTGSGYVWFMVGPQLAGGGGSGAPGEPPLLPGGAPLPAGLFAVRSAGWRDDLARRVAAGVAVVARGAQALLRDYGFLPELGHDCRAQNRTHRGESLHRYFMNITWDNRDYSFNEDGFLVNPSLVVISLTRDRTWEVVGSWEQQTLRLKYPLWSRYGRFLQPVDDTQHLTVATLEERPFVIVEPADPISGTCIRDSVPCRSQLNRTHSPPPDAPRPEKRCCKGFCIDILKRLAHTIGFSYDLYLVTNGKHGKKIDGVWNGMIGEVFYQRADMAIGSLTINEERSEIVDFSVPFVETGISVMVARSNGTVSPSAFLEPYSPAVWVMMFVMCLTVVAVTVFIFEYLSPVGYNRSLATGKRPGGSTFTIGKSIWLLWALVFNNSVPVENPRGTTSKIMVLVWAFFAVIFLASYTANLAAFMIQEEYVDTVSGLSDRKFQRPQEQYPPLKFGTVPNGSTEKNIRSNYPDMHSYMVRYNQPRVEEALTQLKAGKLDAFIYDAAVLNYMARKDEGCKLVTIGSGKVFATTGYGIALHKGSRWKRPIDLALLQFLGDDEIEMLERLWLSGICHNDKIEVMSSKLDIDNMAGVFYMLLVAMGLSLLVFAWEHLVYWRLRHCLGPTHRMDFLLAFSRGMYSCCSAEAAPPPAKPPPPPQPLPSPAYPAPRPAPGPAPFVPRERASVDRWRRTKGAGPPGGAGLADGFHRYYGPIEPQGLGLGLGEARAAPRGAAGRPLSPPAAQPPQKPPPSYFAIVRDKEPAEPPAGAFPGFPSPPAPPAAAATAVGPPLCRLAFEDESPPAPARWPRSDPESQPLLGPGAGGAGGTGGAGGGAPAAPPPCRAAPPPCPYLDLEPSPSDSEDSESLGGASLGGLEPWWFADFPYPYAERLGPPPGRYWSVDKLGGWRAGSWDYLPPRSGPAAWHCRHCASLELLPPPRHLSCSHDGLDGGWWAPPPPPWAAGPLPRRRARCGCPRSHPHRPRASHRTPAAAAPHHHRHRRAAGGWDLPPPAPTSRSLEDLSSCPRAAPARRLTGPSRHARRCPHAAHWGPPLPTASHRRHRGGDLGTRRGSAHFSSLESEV
Glutamate receptor ionotropic, NMDA 2C, sequence (Q14957 whole entry, one chain of several): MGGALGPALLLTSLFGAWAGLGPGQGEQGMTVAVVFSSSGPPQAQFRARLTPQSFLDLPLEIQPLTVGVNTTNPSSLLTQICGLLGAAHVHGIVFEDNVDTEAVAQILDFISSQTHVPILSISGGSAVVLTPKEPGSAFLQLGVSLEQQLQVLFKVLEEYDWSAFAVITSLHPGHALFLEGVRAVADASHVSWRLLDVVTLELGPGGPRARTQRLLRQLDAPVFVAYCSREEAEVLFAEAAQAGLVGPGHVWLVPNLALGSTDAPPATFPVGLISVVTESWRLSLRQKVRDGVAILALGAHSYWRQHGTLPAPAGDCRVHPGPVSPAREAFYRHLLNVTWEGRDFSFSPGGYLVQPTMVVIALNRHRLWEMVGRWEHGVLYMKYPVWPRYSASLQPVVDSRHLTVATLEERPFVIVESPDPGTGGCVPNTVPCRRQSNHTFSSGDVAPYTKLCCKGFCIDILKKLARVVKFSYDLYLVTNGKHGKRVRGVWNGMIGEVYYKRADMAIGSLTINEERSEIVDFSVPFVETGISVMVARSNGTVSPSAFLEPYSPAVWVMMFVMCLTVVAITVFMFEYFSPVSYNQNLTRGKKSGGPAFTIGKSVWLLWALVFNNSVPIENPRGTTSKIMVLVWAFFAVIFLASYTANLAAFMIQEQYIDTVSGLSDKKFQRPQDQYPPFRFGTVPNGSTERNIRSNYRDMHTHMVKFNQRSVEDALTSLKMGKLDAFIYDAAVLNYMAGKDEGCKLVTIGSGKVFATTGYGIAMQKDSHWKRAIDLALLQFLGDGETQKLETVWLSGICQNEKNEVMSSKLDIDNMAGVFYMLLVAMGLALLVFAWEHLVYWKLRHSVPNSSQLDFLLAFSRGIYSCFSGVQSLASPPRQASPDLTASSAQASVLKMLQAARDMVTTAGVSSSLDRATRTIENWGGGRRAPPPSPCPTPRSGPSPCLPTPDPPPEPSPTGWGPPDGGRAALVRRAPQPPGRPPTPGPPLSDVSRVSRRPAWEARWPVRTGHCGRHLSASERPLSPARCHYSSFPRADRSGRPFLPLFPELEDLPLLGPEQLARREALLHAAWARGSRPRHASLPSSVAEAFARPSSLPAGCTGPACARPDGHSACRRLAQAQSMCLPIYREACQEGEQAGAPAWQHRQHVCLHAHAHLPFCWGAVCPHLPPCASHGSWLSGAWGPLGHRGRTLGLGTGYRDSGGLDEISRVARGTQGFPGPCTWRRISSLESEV

Regarding `CCN(Cc1cc(C)n(C[C@@H]2C[C@H]2C#N)c(=O)c1)c1ccc(F)cc1`, the IC50 at Glutamate receptor 2 was 16 µM. The compound also had a chromatographic logD in data set [1] of 2.4.

Turning to `CCN(Cc1cc(=O)n(CC2CC2)c(C)n1)c1ccc(F)cc1`, the IC50 at Glutamate receptor 2 was 2.3 µM. The compound further displayed a chromatographic logD in [1] of 2.9. Also, the concentration giving a half-maximal response (EC50) in [2] was found to be 13 µM.

In the case of `Cc1cccc(Cc2cc(C)n(C[C@H]3C[C@@H]3C#N)c(=O)c2)c1`, the IC50 on Glutamate receptor 2 is greater than 30 µM. Also, the microsomal CLint at 1 µM was determined as 26 µL/min/mg in data set [3] and 15 µL/min/mg in [4]. Also, the chromatographic logD in [1] was 2.4. In data set [2], the EC50 is greater than 30 µM.

As to `CCN(Cc1ccn(CC2CC2)c(=O)c1)c1ccc(F)cc1`, at Glutamate receptor 2, the concentration for half-maximal inhibition (IC50) came to 0.75 µM. This compound also returned a chromatographic logD in data set [1] of 2.8.

For the compound `CCN(Cc1cc(C)n(CC2CC2)c(=O)c1)c1ccc(F)cc1`, the 50% inhibitory concentration (IC50) on Glutamate receptor 2 is 9.9 µM. This compound also came in with a chromatographic logD in [1] of 3.2.

Take `CCN(Cc1cc(C)n(CC2CCC2)c(=O)c1)c1ccc(F)cc1`: the IC50 on Glutamate receptor 2 stood at 1.2 µM. In data set [1], this compound showed a chromatographic logD of 3.6. The EC50 in [2] is 23 µM.

As for `CCN(Cc1cc(C)n(C[C@H]2C[C@@H]2C#N)c(=O)c1)c1ccc(F)cc1`, at Glutamate receptor 2, the IC50 worked out at 11 µM. The microsomal CLint at 1 µM in data set [3] is greater than 768 µL/min/mg; in data set [4] it was 48 µL/min/mg. This compound also gave a chromatographic logD in [1] of 2.4.

As for `CCN(Cc1cc(C)n(Cc2ccccc2)c(=O)c1)c1ccc(F)cc1`, the 50% inhibitory concentration (IC50) at Glutamate receptor 2 was determined as 5.5 µM. This compound displayed a chromatographic logD in [1] of 3.5. In addition, the EC50 in [2] was greater than 30 µM.

As for `Cc1cc(Cc2cccc(Cl)c2)cc(=O)n1C[C@H]1C[C@@H]1C#N`, the IC50 on Glutamate receptor 2 is greater than 30 µM. The microsomal CLint at 1 µM in [3] was determined as 75 µL/min/mg. The compound further returned a chromatographic logD in data set [1] of 2.3.

In the case of `Cc1cc(Cn2nc(Br)cc2Cl)cc(=O)n1C[C@H]1C[C@@H]1C#N`, the concentration at 1 h came out at 111 ng/g in [5] and 590 ng/mL in [13]. The concentration for half-maximal inhibition (IC50) on Glutamate receptor 2 was greater than 30 µM. Besides, the values for the half-maximal effective concentration (EC50) in data set [6], in data set [10] and in data set [11] were greater than 30 µM, 5.1 µM and 1900 nM, respectively. The values for the concentration at 0.5 h in [7] and in [8] were 262 ng/g and 926 ng/mL, respectively. In addition, the microsomal CLint at 1 µM in data set [3] was found to be 14 µL/min/mg; in [4], 28 µL/min/mg. Also, the results for the concentration at 2 h in data set [9] and in [12] were 362 ng/mL and 71 ng/g, respectively. Moreover, the chromatographic logD in [1] is 1.6.

Consider `CCN(Cc1cc(C)n(CCCC#N)c(=O)c1)c1ccc(F)cc1`, for which the half-maximal inhibitory concentration (IC50) on Glutamate receptor 2 worked out at 4.3 µM. In [1], the chromatographic logD was 2.4. Further, the half-maximal effective concentration (EC50) in [2] was greater than 30 µM.

As for `CCc1cc(CN(CC)c2ccc(F)cc2)cc(=O)n1CC1CC1`, in data set [1], the chromatographic logD worked out at 3.6. Besides, the EC50 in data set [2] was determined as 13 µM.

For the compound `Cc1cc(Cc2cccc(Br)c2)cc(=O)n1C[C@H]1C[C@@H]1C#N`, on Glutamate receptor 2, the half-inhibitory concentration (IC50) is greater than 30 µM. Besides, the microsomal CLint at 1 µM in [3] came out at 72 µL/min/mg; in data set [4] it was 24 µL/min/mg. The compound also returned a chromatographic logD in data set [1] of 2.5.

For the compound `Cc1cc(Cn2nc(Cl)cc2Cl)cc(=O)n1C[C@H]1C[C@@H]1C#N`, the half-inhibitory concentration (IC50) at Glutamate receptor 2 is greater than 30 µM. Also, the microsomal CLint at 1 µM in data set [3] came to 22 µL/min/mg; in [4], 12 µL/min/mg. Besides, the chromatographic logD in data set [1] amounted to 1.6.

Take `CCN(Cc1cc(C)n(CC2(C#N)CC2)c(=O)c1)c1ccc(F)cc1`: the IC50 at Glutamate receptor 2 is 2.3 µM. The chromatographic logD in data set [1] amounted to 2.5. In addition, the 50% effective concentration (EC50) in data set [2] is greater than 30 µM.

Regarding `CCCc1cc(CN(CC)c2ccc(F)cc2)cc(=O)n1CC1CC1`, the 50% inhibitory concentration (IC50) on Glutamate receptor 2 is greater than 30 µM. In addition, in data set [1], the chromatographic logD is 4. Also, the concentration giving a half-maximal response (EC50) in data set [2] was found to be 12 µM.

Take `Cc1cc(Cn2nc(C(F)F)cc2Cl)cc(=O)n1C[C@H]1C[C@@H]1C#N`: the IC50 on Glutamate receptor 2 is greater than 30 µM. The compound also had a chromatographic logD in data set [1] of 1.4.

As for `Cc1cc(Cn2nc(C(F)(F)F)cc2Cl)cc(=O)n1C[C@H]1C[C@@H]1C#N`, on Glutamate receptor 2, the 50% inhibitory concentration (IC50) is 21 µM. Also, the microsomal CLint at 1 µM in data set [3] turned out to be 22 µL/min/mg; in data set [4] it was 2 µL/min/mg. For the same compound, the chromatographic logD in [1] turned out to be 1.8.

As for `CCN(Cc1cc(C)n(C[C@@H]2C[C@H]2C#N)c(=O)c1)c1ccc(F)cc1` (racemic), the 50% inhibitory concentration (IC50) at Glutamate receptor 2 stood at 10 µM.
